{"source": "patent US20230272479A1", "about": "“BIOMARKER BASED PATIENT SELECTION FOR PROTEASOME INHIBITOR TREATMENT” (University of Utah Research Foundation, priority 2020, published 2023)", "key": {"Jurkat cells": {"tested_on": "Jurkat cells", "assay": "Viability of WT or ATAD1Δ Jurkat cells after treatment with MCL1 inhibitor", "assay_type": "cell-based, human", "conditions": "ATAD1Δ vs WT Jurkat cells, 24 hr treatment", "experimental": "FIGS. 2A-2G show genome-wide CRISPR screens identify genetic interactions with ATAD1 (A) Schematic of CRISPR screening strategy (B) Generation of clonal ATAD1 knockout in a PTEN-null genetic background of Jurkat cells and proliferation rate of ATAD1Δ and WT Jurkat cells in RPMI1640 media (C) Volcano plot of CRISPR screening results; CRISPR scores were defined as the mean Log2 fold-change of sgRNAs targeting a given gene. Differential CRISPR scores (dCS) were calculated by subtracting the WT CS from the ATAD1Δ CS. dCS combined is the sum of dCS values for each clone. P-values were calculated for each gene using Kolmogorov-Smirnov with Benjamini Hochberg correction and Fisher's Method for P value meta-analysis. Dashed lines demarcate dCS<−2 and Padj<0.05 (D) DepMap data showing correlation of MARCH5 dependency and MCL1 dependency (E) Western blot of whole cell lysates from WT or ATAD1Δ Jurkat cells showing steady-state levels of BIM, MCL1, and FIS1, a non-BCL2 family control (F) Quantification of BIMEL levels in ATAD1Δ cells; n=6 independent experiments (G) Viability of WT or ATAD1Δ Jurkat cells after 24 hr treatment with the MCL1 inhibitor, AMG176.\nThus, like MARCH5, ATAD1 modulates members the BCL2 family and affects apoptotic priming as measured by sensitivity to a BH3-mimetic. […]"}, "[1]": {"tested_on": "Del10q23 cells (SW1088 and H4 glioma and RPMI7951 melanoma)", "assay": "Viability of Del10q23 cells treated with proteasome inhibitors (Cell Titer Glo, crystal violet)", "assay_type": "cell-based", "experimental": "(§1) FIGS. 4A-4K show ATAD1 protects cells from apoptosis induced by proteasome dysfunction. (A) Viability of SW1088 cells transduced with EV or ATAD1-FLAG and treated for 24 hr with indicated drugs (B) Time-course of viability in response to bortezomib treatment in SW1088 cells (C) Western blot of RPMI7951 whole cell lysate treated with 10 nM bortezomib for 8 hr (D) Quantification of C (E) Viability of ATAD1-null vs. re-expressing RPMI7951 cells in response to 16 hr treatment with BTZ and the pan-caspase inhibitor, zVAD-FMK (20 μM) or DMSO (zVAD vehicle) (F) Same as E, but viability was measured by crystal violet staining and quantified in (G). (H) Schematic describing the role of ATAD1 in proteasome inhibitor toxicity (I) Tumor size of subcutaneous xenografts of SW1088 cells in NOD/SCID mice over time (J) Incidence of palpable tumors, or tumor-free survival, over time (K) Proliferation of cultured SW1088 cells as measured with crystal violet staining, n=2 independent experiments. † represents P<0.0001\n(§2) FIGS. 8A-8I show restoring ATAD1 expression in Del(10q23) cells increases resistance to proteasome inhibitors. (A) RPMI7951 cells were treated for 16 hr with bortezomib or carfilzomib and viability was measured by Cell Titer Glo. (B) Time-course of RPMI7951 cells treated with bortezomib (3.125 nM) n=3 biological replicates (C) SW1088 cells were cultured in 5 nM bortezomib for 48 hr and RPMI7951 cells were cultured for 24 hr and viability was assessed by crystal violet staining (D) H4 cells were treated with bortezomib for 24 hr and assessed by Cell Titer Glo (E) ATAD1 addback rescues mitochondrial morphology phenotype in response to bortezomib in SW1088 cells. Cells were treated with BTZ (10 nM) for 12 hr and stained with MitoTracker Red, then imaged on a widefield fluorescence microscope (F) Expression of ATAD1 in DepMap cell lines, highlighting PC3 cells (ATAD1 hemizygous), and two Del10q23 cell lines (G) Generation of ATAD1-deficient, polyclonal PC3 cells using stable expression of sgATAD1 (in LCv2G), with untargeted Cas9 only as a control (LCv2G) (H) Deletion of ATAD1 increases sensitivity to bortezomib in PC3 cells. […]\n(§3) Viability was determined by Cell Titer Glo (Promega) according to the manufacturer's recommendation, with some modifications. […] Luminescence was measured using a Biotek Synergy Neo2 microplate reader. Luminescence values were normalized on each plate to untreated cells on the same plate, and expressed as percent.\nCells cultured in 12 or 6 well plates were washed twice with PBS then fixed with 4% paraformaldehyde (Sigma Aldrich) for 30 minutes at room temperature. […] Absorbance was measured at 590 nm using a Biotek Synergy Neo2 microplate reader, and values were normalized to those from untreated cells of the same genotype on each plate."}, "PC3 cells": {"tested_on": "PC3 cells", "assay": "Viability of PC3 cells with ATAD1 deletion or overexpression treated with bortezomib", "assay_type": "cell-based", "experimental": "as §2\nViability was determined by Cell Titer Glo (Promega) according to the manufacturer's recommendation, with some modifications. […] Luminescence was measured using a Biotek Synergy Neo2 microplate reader. […]"}, "[2]": {"tested_on": "Del10q23 cells (RPMI7951)", "assay": "Apoptosis by Western blot of whole cell lysate after bortezomib", "assay_type": "cell-based", "conditions": "RPMI7951, 10 nM, 8 hr", "experimental": "as §1\nWhole cell lysates were prepared by scraping cells directly into RIPA buffer supplemented with protease and phosphatase inhibitors (Sigma Aldrich P8340, Roche Molecular 04906845001), incubated on ice for 30 minutes with vortexing every 10 min, and then spun at 16,000 g for 10 minutes at 4° C. to remove insoluble material. Supernatant was saved as lysate. […]"}, "RPMI7951 cells": {"tested_on": "RPMI7951 cells", "assay": "Viability of ATAD1-null vs. re-expressing RPMI7951 cells with BTZ and pan-caspase inhibitor", "assay_type": "cell-based", "conditions": "16 hr BTZ, zVAD-FMK 20 μM", "experimental": "as §1\nas §3, with “percent. […]” for “percent.”"}, "H4 glioma cells": {"tested_on": "H4 glioma cells", "assay": "BH3 profiling (cytochrome C release / MOMP) in permeabilized H4 glioma cells", "assay_type": "cell-based", "conditions": "compared across ATAD1 status", "experimental": "Cells were treated with doxycycline (250 ng/mL) for 24 hr (F) Co-immunoprecipitation of ATAD1-FLAG/HA and GFP-BIMEL in cells stably expressing ATAD1-FLAG or EV and transiently transfected overnight with GFP-BIMEL in the presence of zVAD-fmk (G) RPMI7951 cells were treated with MG132 (10 μM) for 4 hr, whole-cell lysates were prepped and analyzed by Western blot. (H) Schematic of reconstituted proteoliposome extraction assay (I) Extraction assay using His-ATAD1 and 3×FLAG-BIML (lanes 1-4, 9-20) or the negative control TA protein, 3×FLAG-Fis1 (lanes 5-8); GST-tagged SGTA and calmodulin (CaM) are included as chaperones to catch extracted TA protein. “I”=Input, “FT”=flow-through, “W”=final wash, “E”=elution. Eluted fractions represent TA proteins extracted by ATAD1 and bound by GST-tagged chaperones; compare elution “E” to input “I”. † denotes P<0.0001\nTo gain insight into how loss of ATAD1 affects apoptotic priming, BH3 profiling was conducted (33). Here, permeabilized cells are treated with BH3 peptides derived from different pro-apoptotic BH3-only proteins, and mitochondrial outer membrane permeability (MOMP) is directly measured by detecting cytochrome C release from mitochondria (FIG. 3A). […] This priming reflects a change in how the cell regulates the endogenous BIM protein. […]"}, "[3]": {"conditions": "Del10q23 cells (ATAD1-null, EV)"}, "[4]": {"conditions": "Del10q23 cells with expression of ATAD1"}}, "note": "Residues, ends and D or L forms follow the SMILES beside them. *: point of attachment. Cbz = O=C(OCc1ccccc1)*; CH2F = FC*", "data": [{"smiles": "CO[C@H]1/C=C/C[C@H](C)[C@@H](C)S(=O)(=O)NC(=O)c2ccc3c(c2)N(C[C@@H]2CC[C@H]21)C[C@@]1(CCCc2cc(Cl)ccc21)CO3", "note": "[AMG176]", "values": [{"measurement": "apoptotic priming (sensitivity to BH3-mimetic, viability)", "setting": "Jurkat cells", "value": "primed cells for apoptosis induced by AMG176"}]}, {"smiles": "CC(C)C[C@H](NC(=O)[C@H](Cc1ccccc1)NC(=O)c1cnccn1)B(O)O", "note": "[bortezomib]", "values": [{"measurement": "loss of viability", "setting": "[1]; [3]", "value": "potently and rapidly induced a loss of viability"}, {"measurement": "loss of viability", "setting": "[1]; [4]", "value": "mitigated by expression of ATAD1"}, {"measurement": "sensitivity (viability)", "setting": "PC3 cells; deletion of the remaining allele of ATAD1", "value": "sensitized to bortezomib"}, {"measurement": "resistance (viability)", "setting": "PC3 cells; overexpression of ATAD1 (not ATAD1E193Q)", "value": "increased resistance to bortezomib"}, {"measurement": "apoptosis", "setting": "[2]; ATAD1 re-expressing cells", "value": "only minimally"}, {"measurement": "apoptosis", "setting": "[2]; Del10q23-EV cells", "value": "robust apoptosis"}]}, {"smiles": "COC(=O)C[C@H](NC(=O)[C@H](C)NC(=O)[C@@H](NC(=O)OCc1ccccc1)C(C)C)C(=O)CF", "note": "[zVAD] (Cbz-Val-Ala-Asp(OMe)-CH2F)", "values": [{"measurement": "effect on viability under bortezomib", "setting": "RPMI7951 cells", "value": "minimal additive effect"}]}, {"smiles": "CC(=O)NC(C)(C)C(=O)N1CCC[C@H]1C(=O)NC(C)(C)C(=O)N[C@@H](C)C(=O)NC(C)(C)C(=O)N[C@@H](C)C(=O)N[C@@H](CCC(N)=O)C(=O)NC(C)(C)C(=O)N[C@H](C(=O)NC(C)(C)C(=O)NCC(=O)N[C@@H](CC(C)C)C(=O)NC(C)(C)C(=O)N1CCC[C@H]1C(=O)N[C@H](C(=O)NC(C)(C)C(=O)NC(C)(C)C(=O)N[C@@H](CCC(=O)O)C(=O)N[C@@H](CCC(N)=O)C(=O)N[C@H](CO)Cc1ccccc1)C(C)C)C(C)C", "note": "[Alamethicin] (HELM PEPTIDE1{[ac].[Aib].P.[Aib].A.[Aib].A.Q.[Aib].V.[Aib].G.L.[Aib].P.V.[Aib].[Aib].E.Q.[OC[C@H](Cc1ccccc1)N[*:1]]}$$$$V2.0)", "values": [{"measurement": "cytochrome C release", "setting": "H4 glioma cells", "value": "induced cytochrome C release equally regardless of ATAD1 status"}]}, {"smiles": "CC(C)C[C@H](NC(=O)[C@H](CCc1ccccc1)NC(=O)CN1CCOCC1)C(=O)N[C@@H](Cc1ccccc1)C(=O)N[C@@H](CC(C)C)C(=O)[C@@]1(C)CO1", "note": "[carfilzomib]", "values": [{"measurement": "loss of viability", "setting": "[1]; [3]", "value": "potently and rapidly induced a loss of viability"}, {"measurement": "loss of viability", "setting": "[1]; [4]", "value": "mitigated by expression of ATAD1"}]}]}
